Five compounds from US12447171B2 (CELGENE QUANTICEL RESEARCH, INC., priority 2019, dated 2025) can be followed below.

Peptide text beside a SMILES is read from it. * marks the point of attachment. Cbz = O=C(OCc1ccccc1)*; CH2F = FC*

The subject of data set [1] is CD11b, CD14, and CD86 surface marker expression. Nature of the data set: Flow cytometry of differentiation markers in AML cell lines. Type of data set: cell-based. How it is done: FACS samples were acquired using BD FACSCanto II. Cell viability was also examined by FACS analysis with Fixable Viability dye 780 (Thermofisher Scientific, Waltham, MA) according to the manufacturer's instructions. Briefly, 10^5 cells were seeded in U bottom 96 well plate, next day treated with 9 doses of CC-90011 (started from 10 uM, 3-fold dilution down), cells were incubated at 37° C. for 6 days and harvested for staining. Cells were washed once with DPBS and stained with 1×FVS780 and washed twice with staining buffer. The samples were stained with 1:200 dilution surface antibodies. Results were then analyzed with FlowJo V10 software (TreeStar Inc., Ashland, OR).

The test system of a further data set is 22 AML cell lines. Nature of the data set: Cell viability assay, single agents and 5-azacytidine-venetoclax combination, AML cell line panel. To be noted: number of 22 AML cell lines.
The next data set relates to BaF-FLT3(WT). Nature of the data set: Cell viability assay (Cell Titer-Glo), BaF3 cells expressing FLT3. It counts as cell-based. To be noted: Mus musculus.
The test system of another data set is BaF-FLT3-ITD. Described as above. Type of data set: cell-based. To be noted: Mus musculus.
The subject of the next data set is BaF-FLT3(D835Y). Described as above. As to conditions: Mus musculus. Type of data set: cell-based.
The next data set relates to MOLM-13 xenograft model. Nature of the data set: Disseminated MOLM-13 xenograft survival study. Type of data set: in vivo, mice. To be noted: MOLM-13, NOD/SCID mice; single agent PO qd×21: midostaurin 100 mg/kg, gilteritinib 4 mg/kg, venetoclax 100 mg/kg; vehicle=19 days. How it is done: (§1) LEED models oral administration of AZA, while HELD models intravenous or subcutaneous administration of AZA.
The animals were fed ad libitum water (reverse osmosis, 1 ppm Cl), and NIH 31 Modified and Irradiated Lab Diet® consisting of 18.0% crude protein, 5.0% crude fat, and 5.0% crude fiber. The mice were housed on irradiated Enrich-o'cobs™ Laboratory Animal Bedding in static microisolators on a 12-hour light cycle at 20-22° C. (68-72° F.) and 40-60% humidity.
(§2) On each day of dosing, an appropriate amount of gilteritinib was dissolved in 0.5% methylcellulose in DI water to yield a dosing solution at 0.4 mg/mL. Each week, an appropriate amount of venetoclax was dissolved in 10% ethanol:30% PEG400:60% phosal 50 propylene glycol to yield a dosing solution at 10 mg/mL. […] Each test mouse received 5×10^6 MOLM-13 cells or 10^7 MV4-11 cells (0.2 mL cell suspension) by tail vein injection. Dosing was initiated three days after tumor cell inoculation, which was designated as Day 1 of the study. NOD/SCID mice (n=9-12/group) were randomized according to body weight and dosed. […] Vehicle was administered both IP and PO. The dosing volume for all treatments was 10 mL/kg, scaled to the weight of each individual animal.
(§3) Animals were monitored individually for an endpoint of moribundity due to progression of the leukemia. Full hind limb paralysis, severe ocular proptosis, or moribundity was considered sufficient for euthanasia due to tumor progression. Moribund animals were defined as sick animals unable to reach food and water. These deaths were classified as death on survival study. The time to endpoint (TTE), in days, was recorded for each mouse that died of its disease or was euthanized due to extensive tumor progression. […] An animal classified as having died from treatment-related (TR) causes was assigned a TTE value equal to the day of death. An animal classified as having died from non-treatment-related (NTR) causes, or used for sampling before endpoint, was excluded from TTE calculations and all further analyses. The median TTE value was calculated for each group. The median TTE of treated mice was expressed as a percentage of the median TTE of the control mice (% T/C), and the increase in life span (ILS) was calculated as: ILS=% T/C−100%, where T=median TTE treated, and C=median TTE control. Thus, if T=C, ILS=0%.
Animals were weighed daily on Days 1-5, then twice per week until the completion of the study. […] Individual body weight loss was monitored as per protocol and any animal that exceeded the limits for acceptable body weight loss was euthanized. Group mean body weight loss also was monitored as per protocol. Dosing was suspended in any group that exceeded the limits for acceptable mean body weight loss. If mean body weight recovered, then dosing may be resumed in that group, but at a lower dosage or less frequent dosing schedule. Acceptable toxicity for the maximum tolerated dose was defined as a group mean body-weight loss of less than 20% during the study and not more than one TR death among ten treated animals. […] A death was classified as NTR if there was no evidence that death was related to treatment side effects or tumor progression. Non-treatment-related deaths may be further characterized based on cause of death. A death may be classified as NTRa if it resulted from an accident or human error. A death may be classified as NTRu if the cause of death is unknown and there is no available evidence of death related to treatment side effects, metastasis, accident or human error, although death due to these etiologies cannot be excluded. Survival was analyzed by the Kaplan-Meier method, based on TTE values. The logrank (Mantel-Cox) and Gehan-Breslow-Wilcoxon tests determined the significance of the difference between the overall survival experiences (survival curves) of two groups, based on TTE values.
These experiments were repeated with a second FLT3-ITD cell line, MOLM-13.

In a further data set the test system is MV4-11 xenograft models. Nature of the data set: Disseminated MV4-11 xenograft survival study. It counts as in vivo. As to conditions: MV4-11, NCG mice; single agent PO qd×21: venetoclax 100 mg/kg, midostaurin 100 mg/kg; vehicle=29.5. How it is done:
as §1
as §2, with “NOD/SCID mice (n=9-12/group) were randomized according to body weight and dosed.” left out
as §3
Animals were weighed daily on Days 1-5, then twice per week until the completion of the study. […] Individual body weight loss was monitored as per protocol and any animal that exceeded the limits for acceptable body weight loss was euthanized. Group mean body weight loss also was monitored as per protocol. Dosing was suspended in any group that exceeded the limits for acceptable mean body weight loss. If mean body weight recovered, then dosing may be resumed in that group, but at a lower dosage or less frequent dosing schedule. […] Survival was analyzed by the Kaplan-Meier method, based on TTE values. The logrank (Mantel-Cox) and Gehan-Breslow-Wilcoxon tests determined the significance of the difference between the overall survival experiences (survival curves) of two groups, based on TTE values.

Data set [2] relates to engineered BaF3 cell lines expressing either wild-type FLT3, FLT3-ITD or FLT3 (D835Y). The experiment in a line: Cell viability and synergy, panel of engineered BaF3 cell lines. Type of data set: cell-based. To be noted: Mus musculus, FIG. 10A, read-out: EC50 (resistant to venetoclax).
For another data set, the system named is MCL-1. Nature of the data set: Western blot of MCL-1 in AML cell lines. It counts as cell-based. To be noted: MV4-11; 20 μM Z-VAD-FMK for 1 hour before 5-azacytidine for another 16 hours. How it is done:
Lysates were quantified using a bicinchoninic acid (BCA) kit (Piece/Thermo Fisher, Waltham, MA). 20 to 30 μg protein was resolved on a 4-12% SDS-PAGE gel, transferred to PVDF membranes (80V/90 minute by wet-transfer), and blocked with Oddysey TBS blocking buffer for 1 hour and then probed with appropriate primary antibodies overnight at 4° C. using dilution as recommended by manufacturer. Membranes were washed three times for a total of 30 minutes and then incubated with secondary antibodies at room temperature in the dark for 1 hour. After another three washes, Odyssey infrared imaging system and companion software (LI-COR biosciences, Lincoln, NE, USA) were used to scan immunoblot membranes and to quantify band intensity according to the manufacturer's instructions. The ratio of proteins of interest to loading control in treated samples was normalized to the corresponding ratio in untreated cells. Antibodies used for immunoblotting were purchased from the following sources: BCL-2 (sc-7382), MCL1- (sc-819) from Santa Cruz Biotechnology (Dallas, TX, USA, Bim (2819), caspase-3 (9664) from Cell Signaling Technology; beta-Actin (A2228) from Sigma-Aldrich; DNMTI (ab188453) from AbCam; TRDye 680 goat anti-rabbit and IRDye 800 goat anti-mouse secondary antibodies (#925-68073 and #925-32212) were purchased from Li-COR Biosciences (Lincoln, NE).

For the compound `COc1ccc(-c2c(-c3ccc(C#N)c(F)c3)nc(N3CCC(N)CC3)n(C)c2=O)cc1F` [CC-90011, 4-[2-(4-amino-piperidin-1-yl)-5-(3-fluoro-4-methoxy-phenyl)-1-methyl-6-oxo-1,6-dihydro-pyrimidin-4-yl]-2-fluoro-benzonitrile], the “change in differentiation markers” value in [1] (five cell lines: HEL, KG-1, MOLM-13, KG-1a, and NOMO-1) was “no changes in any of these differentiation markers”. Moreover, the “cell lines with increased expression of at least one differentiation marker” value in data set [1] (number of 22 AML cell lines following CC-90011 treatment) was “Seventeen”. In addition, the “cell lines sensitive to CC-90011 (single agent cytotoxicity)” value in the data set with 22 AML cell lines is “Eleven”.
`CCc1nc(C(N)=O)c(Nc2ccc(N3CCC(N4CCN(C)CC4)CC3)c(OC)c2)nc1NC1CCOCC1` [Gilteritinib]: the EC50 with BaF-FLT3(WT) turned out to be 4 nM; with BaF-FLT3-ITD it was 1.8 nM; with BaF-FLT3(D835Y) it was 1.8 nM. Further, in the data set on MOLM-13 xenograft model, the Median survival turned out to be 34 days.
`CO[C@@H]1[C@H](N(C)C(=O)c2ccccc2)C[C@H]2O[C@]1(C)n1c3ccccc3c3c4c(c5c6ccccc6n2c5c31)C(=O)NC4` [Midostaurin]: the Median survival with MOLM-13 xenograft model stood at 34 days; in the data set with MV4-11 xenograft models, 57.
`CC1(C)CCC(CN2CCN(c3ccc(C(=O)NS(=O)(=O)c4ccc(NCC5CCOCC5)c([N+](=O)[O-])c4)c(Oc4cnc5[nH]ccc5c4)c3)CC2)=C(c2ccc(Cl)cc2)C1` [Venetoclax]: the EC50 was over 10000 nM in the data set with BaF-FLT3(WT), over 10000 nM with BaF-FLT3-ITD, 4330 nM with BaF-FLT3(D835Y) and over 1000 nM in [2]. The Median survival in the data set on MOLM-13 xenograft model came to 29 days; in the data set on MV4-11 xenograft models, 35.5.
Take `COC(=O)C[C@H](NC(=O)[C@H](C)NC(=O)[C@@H](NC(=O)OCc1ccccc1)C(C)C)C(=O)CF` [Z-VAD-FMK] (Cbz-Val-Ala-Asp(OMe)-CH2F): in the data set on MCL-1, the “effect on MCL-1 degradation by 5-azacytidine” value is given as “partially ablated”.
